Assay results from patent US20250186541A1, “DLL3 TARGETING PEPTIDES AND CONSTRUCTS THEREOF” (MARIANA ONCOLOGY INC., priority 2023, published 2025).
Bridge positions count the residues as written; N and C are the ends. Square brackets hold non-standard residues; d marks the D form. Peptide text beside a SMILES is read from it. * marks the point of attachment. Ala(1-CH2CO2H-4-piperidyl) = N[C@@H](CC1CCN(CC(=O)O)CC1)C(=O)O; DOTA = O=C(O)CN1CCN(CC(=O)O)CCN(CC(=O)*)CCN(CC(=O)O)CC1; Phe(4-CF3) = N[C@@H](Cc1ccc(C(F)(F)F)cc1)C(=O)O; Phe(4-CH2NH2) = NCc1ccc(C[C@H](N)C(=O)O)cc1; 1Nal = N[C@@H](Cc1cccc2ccccc12)C(=O)O; 2Nal = N[C@@H](Cc1ccc2ccccc2c1)C(=O)O; Phe(2-F) = N[C@@H](Cc1ccccc1F)C(=O)O; Ala(cPr) = N[C@@H](CC1CC1)C(=O)O; tBuAla = CC(C)(C)C[C@H](N)C(=O)O; αMeD = C[C@](N)(CC(=O)O)C(=O)O; AllylGly = C=CC[C@H](N)C(=O)O; Chg = N[C@H](C(=O)O)C1CCCCC1; αMeP = C[C@@]1(C(=O)O)CCCN1; hSer = N[C@@H](CCO)C(=O)O; Ahx = NCCCCCC(=O)O

What follows are compounds tested against T1, human DLL3 (Homo sapiens, UniProt Q9NYJ7) (assay: Affinity determination by Surface Plasmon Resonance (SPR), Biacore, 1:1 binding model). Settings: biotinylated human DLL3 on streptavidin chip, 25° C.; NB = nonbinding.
T1 construct: biotin (biotinylated)
T1 sequence (Q9NYJ7 27-618): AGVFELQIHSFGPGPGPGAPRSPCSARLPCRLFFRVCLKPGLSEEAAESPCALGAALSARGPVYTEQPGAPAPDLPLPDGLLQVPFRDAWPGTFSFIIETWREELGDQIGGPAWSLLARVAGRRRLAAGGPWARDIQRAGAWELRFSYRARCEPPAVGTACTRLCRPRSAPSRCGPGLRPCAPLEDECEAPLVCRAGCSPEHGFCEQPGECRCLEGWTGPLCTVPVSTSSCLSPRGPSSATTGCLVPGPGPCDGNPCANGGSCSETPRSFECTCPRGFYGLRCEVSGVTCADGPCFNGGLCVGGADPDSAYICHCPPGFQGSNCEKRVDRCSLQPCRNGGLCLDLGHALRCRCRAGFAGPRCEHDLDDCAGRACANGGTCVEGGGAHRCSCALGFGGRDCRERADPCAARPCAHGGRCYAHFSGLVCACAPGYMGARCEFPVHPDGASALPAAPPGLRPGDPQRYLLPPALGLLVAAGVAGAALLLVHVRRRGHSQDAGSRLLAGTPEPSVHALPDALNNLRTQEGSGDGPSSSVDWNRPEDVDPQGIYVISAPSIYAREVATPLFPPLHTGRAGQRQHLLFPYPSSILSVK
In short: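 SPR with biotinylated human DLL3 captured on a streptavidin chip, with a reference surface subtracted. Samples were injected at several concentrations at 100 μL/min in phosphate buffer with 137 mM NaCl, 2.7 mM KCl, 0.05% P20 and 2% DMSO. Kinetic and affinity constants came from a 1:1 binding fit.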

Kd [nM]	Compound
0.66	CC(=O)N[C@H](C(=O)N[C@@H](CO)C(=O)N[C@@H](CC(=O)O)C(=O)N[C@H]1CSSC[C@@H](C(=O)N2CCC[C@@]2(C)C(=O)N[C@@H](Cc2ccccc2F)C(=O)N[C@@H](CC(=O)O)C(=O)N[C@H](CCCCNC(=O)CN2CCN(CC(=O)O)CCN(CC(=O)O)CCN(CC(=O)O)CC2)C(N)=O)NC(=O)[C@H](CC(N)=O)NC(=O)[C@H](Cc2c[nH]c3ccccc23)NC(=O)[C@H](CCC(N)=O)NC(=O)[C@H](CC(C)C)NC(=O)[C@H](Cc2cccc3ccccc23)NC1=O)C1CCCCC1 [compound 117, Ac-(Chg)-S-D-C(3)-(1Nal)-L-Q-W-N-C(3)-(aMe-P)-(2F-Phe)-D-D-Lys(DOTA)-CONH2] (Ac-[Chg]SDC[1Nal]LQWNC[αMeP][Phe(2-F)]D[dK](DOTA)-NH2; disulfide 4-10)
10	CC(=O)N[C@@H](Cc1ccccc1)C(=O)N[C@@H](CO)C(=O)N[C@@H](CC(=O)O)C(=O)N[C@H]1CSSC[C@@H](C(=O)N2CCC[C@H]2C(=O)N[C@@H](Cc2ccccc2)C(=O)N[C@@H](CC(=O)O)C(=O)N[C@H](CCCCNC(=O)CN2CCN(CC(=O)O)CCN(CC(=O)O)CCN(CC(=O)O)CC2)C(N)=O)NC(=O)[C@H](CC(N)=O)NC(=O)[C@H](Cc2c[nH]c3ccccc23)NC(=O)[C@H](CCC(N)=O)NC(=O)[C@H](CC(C)C)NC(=O)[C@H](Cc2c[nH]c3ccccc23)NC1=O [compound 80, Ac-Phe-S-D-C(3)-W-L-Q-W-N-C(3)-P-F-D-D-Lys(DOTA)-CONH2] (Ac-FSDCWLQWNCPFD[dK](DOTA)-NH2; disulfide 4-10)
> 300	CC(=O)N[C@H](C(=O)N[C@@H](CO)C(=O)N[C@@H](CC(=O)O)C(=O)N[C@H]1CSSC[C@@H](C(=O)N2CCC[C@H]2C(=O)N[C@@H](Cc2ccccc2)C(=O)N[C@@H](CC(=O)O)C(N)=O)NC(=O)[C@H](CCCCNC(=O)CN2CCN(CC(=O)O)CCN(CC(=O)O)CCN(CC(=O)O)CC2)NC(=O)[C@H](Cc2c[nH]c3ccccc23)NC(=O)[C@H](CCC(N)=O)NC(=O)[C@H](CC(C)C)NC(=O)[C@H](Cc2c[nH]c3ccccc23)NC1=O)C1CCCCC1 [compound 100, Ac-(Chg)-S-D-C(3)-W-L-Q-W-[L-Lys(DOTA)]-C(3)-P-F-D-CONH2] (Ac-[Chg]SDCWLQWK(DOTA)CPFD-NH2; disulfide 4-10)
> 100	CC(=O)N[C@H](C(=O)N[C@@H](CO)C(=O)N[C@@H](CC(=O)O)C(=O)N[C@H]1CSSC[C@@H](C(=O)N2CCC[C@H]2C(=O)N[C@@H](Cc2ccccc2)C(=O)N[C@@H](CC(=O)O)C(N)=O)NC(=O)[C@H](CC(N)=O)NC(=O)[C@H](Cc2c[nH]c3ccccc23)NC(=O)[C@H](CCC(N)=O)NC(=O)[C@H](CC(C)C)NC(=O)[C@H](CCCCNC(=O)CN2CCN(CC(=O)O)CCN(CC(=O)O)CCN(CC(=O)O)CC2)NC1=O)C1CCCCC1 [compound 97, Ac-(Chg)-S-D-C(3)-[L-Lys(DOTA)]-L-Q-W-N-C(3)-P-F-D-CONH2] (Ac-[Chg]SDCK(DOTA)LQWNCPFD-NH2; disulfide 4-10)
> 300	CSCC[C@H](NC(C)=O)C(=O)N[C@@H](CO)C(=O)N[C@@H](CC(=O)O)C(=O)N[C@H]1CSSC[C@@H](C(=O)N2CCC[C@H]2C(=O)N[C@@H](Cc2ccccc2)C(=O)N[C@@H](CCO)C(=O)N[C@H](CCCCNC(=O)CN2CCN(CC(=O)O)CCN(CC(=O)O)CCN(CC(=O)O)CC2)C(N)=O)NC(=O)[C@H](CC(N)=O)NC(=O)[C@H](Cc2c[nH]c3ccccc23)NC(=O)[C@H](CCC(N)=O)NC(=O)[C@H](CC(C)C)NC(=O)[C@H](Cc2c[nH]c3ccccc23)NC1=O [compound 54, Ac-M-S-D-C(3)-W-L-Q-W-N-C(3)-P-F-(hSer)-D-Lys(DOTA)-CONH2] (Ac-MSDCWLQWNCPF[hSer][dK](DOTA)-NH2; disulfide 4-10)

Further lines, the compound ahead of its results:

Compound	Kd [nM]
CC(C)C[C@@H]1NC(=O)[C@H](Cc2c[nH]c3ccccc23)NC(=O)[C@@H](NC(=O)[C@H](CC(=O)O)NC(=O)[C@H](CO)NC(=O)CCCCCNC(=O)CN2CCN(CC(=O)O)CCN(CC(=O)O)CCN(CC(=O)O)CC2)CSSC[C@@H](C(=O)N2CCC[C@H]2C(=O)N[C@@H](Cc2ccc(C(F)(F)F)cc2)C(=O)N[C@@H](CC(=O)O)C(N)=O)NC(=O)[C@H](CC(N)=O)NC(=O)[C@H](Cc2c[nH]c3ccccc23)NC(=O)[C@H](CCC(N)=O)NC1=O [compound 34, DOTA-Ahx-S-D-C(3)-W-L-Q-W-N-C(3)-P-(4CF3-F)-D-CONH2] ({DOTA-Ahx}-SDCWLQWNCP[Phe(4-CF3)]D-NH2; disulfide 3-9)	> 300
CC(=O)N[C@H](CO)C(=O)N[C@@H](CC(=O)O)C(=O)N[C@H]1CSSC[C@@H](C(=O)N2CCC[C@@]2(C)C(=O)N[C@@H](Cc2ccccc2)C(=O)N[C@@H](CC(=O)O)C(=O)N[C@H](CCCCNC(=O)CN2CCN(CC(=O)O)CCN(CC(=O)O)CCN(CC(=O)O)CC2)C(N)=O)NC(=O)[C@H](CC(N)=O)NC(=O)[C@H](Cc2c[nH]c3ccccc23)NC(=O)[C@H](CCC(N)=O)NC(=O)[C@H](CC2CC2)NC(=O)[C@H](Cc2cccc3ccccc23)NC1=O [compound 140, Ac-(D-Ser)-D-C(3)-(1Nal)-(cPrA)-Q-W-N-C(3)-(aMe-P)-F-D-D-Lys(DOTA)-CONH2] (Ac-[dS]DC[1Nal][Ala(cPr)]QWNC[αMeP]FD[dK](DOTA)-NH2; disulfide 3-9)	1.5
CC(=O)N[C@@H](CC1CCN(CC(=O)O)CC1)C(=O)N[C@@H](CO)C(=O)N[C@@](C)(CC(=O)O)C(=O)N[C@H]1C/C=C\C[C@@H](C(=O)N2CCC[C@@]2(C)C(=O)N[C@@H](Cc2ccccc2)C(=O)N[C@@H](CC(=O)O)C(N)=O)NC(=O)[C@H](CC(N)=O)NC(=O)[C@H](Cc2ccc3ccccc3c2)NC(=O)[C@H](Cc2ccc(CNC(=O)CN3CCN(CC(=O)O)CCN(CC(=O)O)CCN(CC(=O)O)CC3)cc2)NC(=O)[C@H](CC(C)(C)C)NC(=O)[C@H](Cc2cccc3ccccc23)NC1=O [compound 207, Ac-[3-(piperidinyl-4-CH2CO2H)-Ala]-S-(aMe-Asp)-AllyG(4)-(1Nal)-(t-Bu-Ala)-[PAF(DOTA)]-(2Nal)-N-AllyG(4)-(aMe-P)-F-D-CONH2] (Ac-[Ala(1-CH2CO2H-4-piperidyl)]S[αMeD][AllylGly][1Nal][tBuAla][Phe(4-CH2NH2)](DOTA)[2Nal]N[AllylGly][αMeP]FD-NH2; staple (Z) 4-10)	31
CSCC[C@H](NC(C)=O)C(=O)N[C@@H](CO)C(=O)N[C@@H](CC(=O)O)C(=O)N[C@H]1CSSC[C@@H](C(=O)N2CCC[C@H]2C(=O)N[C@@H](Cc2ccccc2)C(=O)N[C@@H](C)C(N)=O)NC(=O)[C@H](CC(N)=O)NC(=O)[C@H](Cc2c[nH]c3ccccc23)NC(=O)[C@H](CCC(N)=O)NC(=O)[C@H](CC(C)C)NC(=O)[C@H](Cc2c[nH]c3ccccc23)NC1=O [compound 29, Ac-M-S-D-C(3)-W-L-Q-W-N-C(3)-P-F-(L-Ala)-CONH2] (Ac-MSDCWLQWNCPFA-NH2; disulfide 4-10)	> 100
CC(=O)N[C@@H](CO)C(=O)N[C@@](C)(CC(=O)O)C(=O)N[C@H]1CCCC[C@@H](C(=O)N2CCC[C@@]2(C)C(=O)N[C@@H](Cc2ccccc2)C(=O)N[C@@H](CC(=O)O)C(N)=O)NC(=O)[C@H](CC(N)=O)NC(=O)[C@H](Cc2ccc3ccccc3c2)NC(=O)[C@H](Cc2ccc(CNC(=O)CN3CCN(CC(=O)O)CCN(CC(=O)O)CCN(CC(=O)O)CC3)cc2)NC(=O)[C@H](CC(C)(C)C)NC(=O)[C@H](Cc2cccc3ccccc23)NC1=O [compound 213, Ac-S-(aMe-Asp)-AllyG(4)*-(1Nal)-(t-Bu-Ala)-[PAF(DOTA)]-(2Nal)-N-AllyG(4)*-(aMe-P)-F-D-CONH2]	0.419
